Experimental data as given in patent US7232835B2, “3,6-Disubstituted azabicyclo derivatives as muscarinic receptor antagonists” (Ranbaxy Laboratories Limited, priority 2002, dated 2007).
Read-outs that look alike come from different tables or passages of the source.

Legend:
M3 muscarinic receptor = biological target: T1, M3 muscarinic receptor (Rattus norvegicus, UniProt P08483); experiment: [3H]-N-methylscopolamine radioligand binding assay, rat submandibular gland membranes; set-up: Receptor Binding Assay Selectivity: reference not given here
T1 construct: Submandibular glands and heart were isolated and placed in ice cold homogenising buffer; from tissue; host or cells: rat submandibular gland membrane homogenate

isolated rat bladder = experiment: tissue or blood; type: cell-based; settings: rat bladder strips, antagonism of carbachol contraction
M2 muscarinic receptor = biological target: T2, M2 muscarinic receptor (Rattus norvegicus, UniProt P10980); experiment: [3H]-N-methylscopolamine radioligand binding assay, rat heart membranes; settings: rat heart, [3H]NMS
T2 construct: Submandibular glands and heart were isolated and placed in ice cold homogenising buffer; from tissue; host or cells: rat heart membrane homogenate
T2 sequence (P10980 1-466): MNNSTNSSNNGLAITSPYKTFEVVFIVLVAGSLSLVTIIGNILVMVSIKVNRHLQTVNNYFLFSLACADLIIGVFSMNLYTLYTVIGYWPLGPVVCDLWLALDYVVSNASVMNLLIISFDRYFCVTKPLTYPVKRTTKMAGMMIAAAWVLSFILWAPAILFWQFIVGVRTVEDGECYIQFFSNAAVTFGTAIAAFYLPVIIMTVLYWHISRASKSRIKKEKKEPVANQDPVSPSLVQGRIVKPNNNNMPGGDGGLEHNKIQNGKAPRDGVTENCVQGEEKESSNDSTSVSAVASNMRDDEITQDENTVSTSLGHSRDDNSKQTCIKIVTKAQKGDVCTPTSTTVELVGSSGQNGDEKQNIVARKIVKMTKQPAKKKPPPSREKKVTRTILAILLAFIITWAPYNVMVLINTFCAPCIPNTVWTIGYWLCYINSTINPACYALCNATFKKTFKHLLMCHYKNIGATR

[1] = Table III, rat submandibular gland, [3H]NMS, read-out: M3 Ki (nm)
[2] = Table III, read-out: Rat Bladder pKB (converted)
[3] = Table III, read-out: M2 Ki (nm)
[4] = Receptor Binding Assay Ki (nM) M 3
[5] = Table II, read-out: Functional Assay KB
[6] = Table II, read-out: Receptor Binding Assay Ki (nM) M2
[7] = Table III, rat submandibular gland, [3H]NMS, read-out: M3 Pki (converted)
[8] = Table III, read-out: M2 pKi (converted)
[9] = Table II, rat submandibular gland, [3H]NMS, read-out: Receptor Binding Assay Ki (nM) M 3

T1 sequence (P08483 whole entry): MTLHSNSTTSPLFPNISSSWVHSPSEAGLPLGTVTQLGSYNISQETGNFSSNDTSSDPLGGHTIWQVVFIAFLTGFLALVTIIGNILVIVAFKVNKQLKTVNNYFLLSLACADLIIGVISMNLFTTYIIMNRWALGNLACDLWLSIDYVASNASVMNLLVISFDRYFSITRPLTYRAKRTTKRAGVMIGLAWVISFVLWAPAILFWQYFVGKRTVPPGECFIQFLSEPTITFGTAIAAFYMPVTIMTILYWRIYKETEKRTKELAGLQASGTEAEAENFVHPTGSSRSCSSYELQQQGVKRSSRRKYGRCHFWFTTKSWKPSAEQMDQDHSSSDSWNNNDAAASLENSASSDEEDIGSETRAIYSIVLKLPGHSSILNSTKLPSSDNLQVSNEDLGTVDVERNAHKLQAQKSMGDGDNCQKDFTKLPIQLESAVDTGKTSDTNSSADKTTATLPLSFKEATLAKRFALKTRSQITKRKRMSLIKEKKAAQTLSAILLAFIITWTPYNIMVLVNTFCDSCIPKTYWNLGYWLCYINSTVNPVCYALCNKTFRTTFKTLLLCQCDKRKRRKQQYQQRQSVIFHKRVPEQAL

| Compound | Ki (M3 muscarinic receptor; [1]) | Kb (isolated rat bladder; [2]) | Ki (M2 muscarinic receptor; [3]) | Receptor Binding Assay Selectivity (M3 muscarinic receptor) | Ki (M3 muscarinic receptor; M3 Ki (nm)) | Ki (M3 muscarinic receptor; [4]) | Kb (isolated rat bladder; [5]) | Ki (M2 muscarinic receptor; [6]) | Ki (M3 muscarinic receptor; [7]) | Ki (M3 muscarinic receptor; M3 Pki) | Ki (M2 muscarinic receptor; [8]) | Ki (M3 muscarinic receptor; [9]) | Receptor Binding Assay Selectivity (M3 muscarinic receptor; Table II, ratio M2 Ki / M3 Ki) |
| --- | --- | --- | --- | --- | --- | --- | --- | --- | --- | --- | --- | --- | --- |
| O=C(NC1C2CN(Cc3cc(F)cc(F)c3)CC21)C(O)(c1ccccc1)C1CCCCC1 (stereo not drawn) [Compound No. 23, (1α,5α,6α)-6-N-(3-azabicyclo[3.1.0]hexyl-3-(3,5-difluorobenzyl))-2-cyclohexyl-2-hydroxy-2-phenyl acetamide] | 530 nM | 2.29 µM | > 1000 nM |  |  |  |  |  |  |  |  |  |  |
| O=C(N[C@H]1[C@@H]2CN(C3CC3)C[C@@H]21)C(O)(c1ccccc1)C1CCCCC1 (stereo partly drawn) [Compound No. 38, (1α,5α,6α)-6-N-(3-azabicyclo[3.1.0]hexyl-3-cyclopropyl)-2-cyclohexyl-2-hydroxy-2-phenyl acetamide] | 1560 nM | 0.288 µM | > 1000 nM |  |  |  |  |  |  |  |  |  |  |
| Cc1ccc(S(=O)(=O)NC(=O)N2C[C@@H]3[C@H](C2)[C@H]3NC(=O)C(O)(c2ccccc2)C2CCCCC2)cc1 (stereo partly drawn) [Compound No. 49, (1α,5α,6α)-6-N-(3-azabicyclo[3.1.0]hexyl-3-(4-methylphenyl-1-sulphonamide)urea)-2-cyclohexyl-2-hydroxy-2-phenyl acetamide] | 1000 nM | 0.631 µM | > 1000 nM |  |  |  |  |  |  |  |  |  |  |
| O=C(N[C@H]1[C@@H]2CN(CCc3ccc4c(c3)OCO4)C[C@@H]21)[C@](O)(c1ccccc1)C1CCCC1 [Compound No. 82, (2R)-(1α,5α,6α)-6-N-(3-azabicyclo[3.1.0]hexyl-3-(3,4-methylenedioxyphenyl)ethyl)-2-cyclopentyl-2-hydroxy-2-phenyl acetamide] |  | 0.000759 µM | 646 nM | 5 | 11.7 nM | 11.7 nM | 0.00912 µM | 646 nM |  |  |  |  |  |
| COc1ccc(C(O)(C(=O)NC2C3CN(CCC=C(C)C)CC32)C2CCCCC2)cc1 (stereo not drawn) [Compound No. 57, (1α,5α,6α)-6-N-(3-azabicyclo[3.1.0]hexyl-3-(4-methyl-3-pentenyl))-2-cyclohexyl-2-hydroxy-2-(4-methoxyphenyl)acetamide] | 240 nM | 1.86 µM | > 1000 nM |  |  |  |  |  |  |  |  |  |  |
| O=C(NC1C2CN(CCc3ccccc3)CC21)C(O)(c1ccccc1)C1CCCC1 (stereo not drawn) [Compound No. 67, (1α,5α,6α)-6-N-(3-azabicyclo[3.1.0]hexyl-3-(2-phenylethyl))-2-cyclopentyl-2-hydroxy-2-phenyl acetamide] |  | 0.038 µM | 1420 nM |  |  |  |  |  | 38.9 nM |  |  |  |  |
| O=C(NC1C2CN(CCc3ccc4c(c3)OCO4)CC21)C(O)(c1ccccc1)C1CCCC1 (stereo not drawn) [Compound No. 66] |  | 0.00324 µM | 182 nM | 12.88 | 18.4 nM | 18.4 nM | 0.005 µM | 237 nM |  | 15.5 nM | 115 nM |  |  |
| O=C(N[C@H]1[C@@H]2CN(Cc3ccc4c(c3)OCO4)C[C@@H]21)C(O)(c1ccccc1)C1CCCCC1 (stereo partly drawn) [Compound No. 42, (1α,5α,6α)-6-N-(3-azabicyclo[3.1.0]hexyl-3-(3,4-methylenedioxybenzyl))-2-cyclohexyl-2-hydroxy-2-phenyl acetamide] | 55 nM | 0.0759 µM | 2200 nM |  |  |  |  |  | 56.2 nM |  |  |  |  |
| CC(C)=CCCN1C[C@@H]2[C@H](C1)[C@H]2NC(=O)C(O)(c1ccccc1)C1CCCCC1 (stereo partly drawn) [Compound No. 41, (1α,5α,6α)-6-N-(3-azabicyclo[3.1.0]hexyl-3-(4-methyl-3-pentenyl))-2-cyclohexyl-2-hydroxy-2-phenyl acetamide] | 47 nM | 0.0204 µM | 2940 nM |  |  |  | 0.0324 µM | 2940 nM |  |  |  | 47 nM | 62.64 |
| CC(C)=CCCN1C[C@@H]2[C@H](C1)[C@H]2NC(=O)[C@](O)(c1ccccc1)C1CCCC1 [Compound No. 81, (2R)-(1α,5α,6α)-6-N-(3-azabicyclo[3.1.0]hexyl-3-(4-methyl-3-pentenyl))-2-cyclopentyl-2-hydroxy-2-phenyl acetamide] | 12.4 nM | 0.0112 µM | 564 nM |  |  |  | 0.00795 µM | 564 nM | 11.5 nM |  | 525 nM | 12.4 nM | 45.48 |
